Among the data in PMC4753328, “Muscle-Type Nicotinic Receptor Blockade by Diethylamine, the Hydrophilic Moiety of Lidocaine” (Frontiers in Molecular Neuroscience, 2016) are IC50 and EC50 values, retold here.

A word on the IC50: it is the concentration that inhibits the measured activity by half. A high value points to a need for much substance. As a reminder, the EC50 is the concentration that produces a half-maximal response.

The target in assay [1] is T1, muscle-type nicotinic acetylcholine receptor (nAChR) (Torpedo marmorata, UniProt P02711+Q6S3H8+Q6S3H9+Q6S3I0).
T1 construct: gene CHRNA1; native nAChR purified from electroplax, reconstituted in asolectin lipids and microtransplanted to Xenopus oocytes; with β, γ and δ subunits of the heteropentamer
As to the kind of experiment: two-electrode voltage clamp, inhibition of currents evoked by […] ACh at −[…] mV. The format is cell-based. A general note: In two-electrode clamp one electrode senses voltage and the other passes current.

In assay [2] the target is T1, muscle-type nicotinic acetylcholine receptor (nAChR). Briefly: two-electrode voltage clamp, ACh concentration-current curve (agonist). The assay is classed as cell-based.

T1 sequence (P02711 25-461): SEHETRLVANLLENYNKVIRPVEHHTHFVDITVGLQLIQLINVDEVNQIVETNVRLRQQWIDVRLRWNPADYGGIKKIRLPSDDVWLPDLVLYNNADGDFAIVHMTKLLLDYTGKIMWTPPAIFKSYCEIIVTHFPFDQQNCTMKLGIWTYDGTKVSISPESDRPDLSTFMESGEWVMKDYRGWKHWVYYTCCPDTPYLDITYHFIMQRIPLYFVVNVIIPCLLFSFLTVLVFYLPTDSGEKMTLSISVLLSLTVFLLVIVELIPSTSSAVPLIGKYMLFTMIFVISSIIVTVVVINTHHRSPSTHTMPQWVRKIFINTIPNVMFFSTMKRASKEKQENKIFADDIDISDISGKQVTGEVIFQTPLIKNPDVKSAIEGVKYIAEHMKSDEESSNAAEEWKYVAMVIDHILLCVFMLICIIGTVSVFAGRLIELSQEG
T1 sequence (Q6S3I0 25-493): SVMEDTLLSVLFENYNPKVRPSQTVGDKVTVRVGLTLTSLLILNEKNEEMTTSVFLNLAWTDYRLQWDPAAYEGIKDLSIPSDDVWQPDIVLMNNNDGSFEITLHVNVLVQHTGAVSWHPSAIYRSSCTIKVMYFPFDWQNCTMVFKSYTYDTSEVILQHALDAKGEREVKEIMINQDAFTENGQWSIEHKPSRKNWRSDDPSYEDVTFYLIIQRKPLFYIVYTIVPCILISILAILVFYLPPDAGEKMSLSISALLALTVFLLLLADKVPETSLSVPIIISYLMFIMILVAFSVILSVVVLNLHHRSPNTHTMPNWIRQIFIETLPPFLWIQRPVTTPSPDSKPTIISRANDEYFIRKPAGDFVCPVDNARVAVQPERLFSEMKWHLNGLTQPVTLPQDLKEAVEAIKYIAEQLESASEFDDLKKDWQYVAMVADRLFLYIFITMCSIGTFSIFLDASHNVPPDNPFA
T1 sequence (Q6S3H9 18-505): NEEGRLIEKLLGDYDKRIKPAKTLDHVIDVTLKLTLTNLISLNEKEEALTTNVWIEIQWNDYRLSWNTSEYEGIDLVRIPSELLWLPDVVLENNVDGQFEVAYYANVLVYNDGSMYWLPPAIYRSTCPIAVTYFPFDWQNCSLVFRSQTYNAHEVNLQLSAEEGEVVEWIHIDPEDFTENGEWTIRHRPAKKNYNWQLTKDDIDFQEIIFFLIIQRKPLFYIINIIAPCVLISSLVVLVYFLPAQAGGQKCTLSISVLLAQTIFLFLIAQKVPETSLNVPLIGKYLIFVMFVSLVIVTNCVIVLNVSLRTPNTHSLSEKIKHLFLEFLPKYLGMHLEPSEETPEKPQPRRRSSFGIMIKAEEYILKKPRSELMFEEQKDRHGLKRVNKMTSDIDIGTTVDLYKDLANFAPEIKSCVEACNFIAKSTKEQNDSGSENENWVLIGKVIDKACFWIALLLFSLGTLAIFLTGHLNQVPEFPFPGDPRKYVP
T1 sequence (Q6S3H8 22-522): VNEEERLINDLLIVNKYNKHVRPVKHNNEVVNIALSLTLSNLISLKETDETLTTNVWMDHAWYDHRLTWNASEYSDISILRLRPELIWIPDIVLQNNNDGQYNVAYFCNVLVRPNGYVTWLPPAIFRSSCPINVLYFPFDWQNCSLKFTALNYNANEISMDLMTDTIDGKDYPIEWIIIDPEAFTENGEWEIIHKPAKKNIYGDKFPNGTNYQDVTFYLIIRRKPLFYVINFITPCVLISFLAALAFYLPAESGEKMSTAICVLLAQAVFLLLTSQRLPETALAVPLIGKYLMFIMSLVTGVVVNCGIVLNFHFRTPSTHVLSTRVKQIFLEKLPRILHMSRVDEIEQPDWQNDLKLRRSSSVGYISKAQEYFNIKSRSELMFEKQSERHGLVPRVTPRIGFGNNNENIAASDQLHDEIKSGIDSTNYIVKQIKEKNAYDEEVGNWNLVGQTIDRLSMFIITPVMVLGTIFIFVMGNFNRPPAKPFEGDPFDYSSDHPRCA

`CCNCC` [DEA, diethylamine]: in assay [1], the IC50 amounted to 68 µM.
Take `CC(=O)OCC[N+](C)(C)C` [ACh, acetylcholine]: in assay [2], the midpoint of the response, the EC50, lay at 46 µM.
